Reference: ChEMBL document CHEMBL1137006, “Optimization of the central linker of dicationic bis-benzimidazole anti-MRSA and anti-VRE agents” (2009)
Values after ≈ are worked out from the molar mass of the structure shown.

What was measured:
Type in all cases: functional
Staphylococcus aureus [1] = experiment: Antibacterial activity against methicillin-resistan Staphylococcus aureus ATCC 33591 by NCCLS method
Enterococcus faecium = experiment: Antibacterial activity against vancomycin-resistant Enterococcus faecium ATCC 700221 by NCCLS method
[2] = system: Staphylococcus epidermidis; experiment: Antibacterial activity against methicillin-resistan Staphylococcus epidermidis ATCC 51625 by NCCLS method
Staphylococcus aureus [3] = experiment: Antibacterial activity against Staphylococcus aureus ATCC 29213 by NCCLS method
Bacillus cereus = experiment: Antibacterial activity against Bacillus cereus ATCC 11778 by NCCLS method
Enterococcus faecalis = experiment: Antibacterial activity against vancomycin-resistant Enterococcus faecalis ATCC 51575 by NCCLS method
Bacteroides fragilis = experiment: Antibacterial activity against Bacteroides fragilis ATCC 23745 by NCCLS method
Staphylococcus aureus [4] = experiment: Antibacterial activity against multi-drug resistant Staphylococcus aureus BAA-39 by NCCLS method
[5] = system: Staphylococcus epidermidis; experiment: Antibacterial activity against Staphylococcus epidermidis ATCC 12228 by NCCLS method
Clostridium perfringens = experiment: Antibacterial activity against Clostridium perfringens ATCC 10388 by NCCLS method
Bacillus subtilis = experiment: Antibacterial activity against Bacillus subtilis ATCC 23857 by NCCLS method
Streptococcus pneumoniae = experiment: Antibacterial activity against Streptococcus pneumoniae ATCC 6301 by NCCLS method

Row | SMILES | MIC (Staphylococcus aureus [1]) [µg/mL] | MIC (Enterococcus faecium) [µg/mL] | MIC [2] [µg/mL] | MIC (Staphylococcus aureus [3]) [µg/mL] | MIC (Bacillus cereus) [µg/mL] | MIC (Enterococcus faecalis) [µg/mL] | MIC (Bacteroides fragilis) [µg/mL] | MIC (Staphylococcus aureus [4]) [µg/mL] | MIC [5] [µg/mL] | MIC (Clostridium perfringens) [µg/mL] | MIC (Bacillus subtilis) [µg/mL] | MIC (Streptococcus pneumoniae) [µg/mL]
1 | CC(C)NC(=N)c1ccc2[nH]c(-c3ccc(-c4ccc(-c5ccc(-c6nc7cc(C(=N)NC(C)C)ccc7[nH]6)cc5)o4)cc3)nc2c1 | 2 (≈ 3.22 µM) | 2 (≈ 3.22 µM) | 2 (≈ 3.22 µM) | > 32 | 2 (≈ 3.22 µM) | > 32 | > 32 | 32 (≈ 51.5 µM) | 4 (≈ 6.44 µM) | 1 (≈ 1.61 µM) | 2 (≈ 3.22 µM) | 0.12 (≈ 0.193 µM)
2 | CC(C)NC(=N)c1ccc2[nH]c(-c3ccc(C#Cc4ccc(-c5nc6cc(C(=N)NC(C)C)ccc6[nH]5)cc4)cc3)nc2c1 | 2 (≈ 3.46 µM) | 0.5 (≈ 0.864 µM) | 0.25 (≈ 0.432 µM) | 2 (≈ 3.46 µM) | 0.5 (≈ 0.864 µM) | 32 (≈ 55.3 µM) | > 32 | 4 (≈ 6.91 µM) | 0.12 (≈ 0.207 µM) | 4 (≈ 6.91 µM) | 4 (≈ 6.91 µM) | –
3 | CC(C)NC(=N)c1ccc2[nH]c(-c3ccc(Oc4ccc(-c5nc6cc(C(=N)NC(C)C)ccc6[nH]5)cc4)cc3)nc2c1 | 0.12 (≈ 0.21 µM) | < 0.06 | < 0.06 | 0.25 (≈ 0.438 µM) | < 0.06 | 0.12 (≈ 0.21 µM) | 2 (≈ 3.5 µM) | 0.5 (≈ 0.876 µM) | < 0.06 | 0.5 (≈ 0.876 µM) | < 0.06 | < 0.06
4 | CC(C)NC(=N)c1ccc2[nH]c(-c3ccc(N(c4ccccc4)c4ccc(-c5nc6cc(C(=N)NC(C)C)ccc6[nH]5)cc4)cc3)nc2c1 | 0.5 (≈ 0.774 µM) | 0.12 (≈ 0.186 µM) | 0.25 (≈ 0.387 µM) | 1 (≈ 1.55 µM) | 0.12 (≈ 0.186 µM) | 0.5 (≈ 0.774 µM) | 4 (≈ 6.19 µM) | 0.5 (≈ 0.774 µM) | 0.25 (≈ 0.387 µM) | 1 (≈ 1.55 µM) | ≤ 0.06 | 0.12 (≈ 0.186 µM)
5 | CC(C)NC(=N)c1ccc2[nH]c(-c3ccc(Nc4ccc(-c5nc6cc(C(=N)NC(C)C)ccc6[nH]5)cc4)cc3)nc2c1 | 0.25 (≈ 0.439 µM) | 0.12 (≈ 0.211 µM) | 0.25 (≈ 0.439 µM) | 0.25 (≈ 0.439 µM) | 0.12 (≈ 0.211 µM) | 0.25 (≈ 0.439 µM) | > 32 | 0.25 (≈ 0.439 µM) | 0.12 (≈ 0.211 µM) | 2 (≈ 3.51 µM) | 0.12 (≈ 0.211 µM) | 0.12 (≈ 0.211 µM)
6 | CC(C)NC(=N)c1ccc2[nH]c(-c3ccc(N(C)c4ccc(-c5nc6cc(C(=N)NC(C)C)ccc6[nH]5)cc4)cc3)nc2c1 | 0.5 (≈ 0.857 µM) | ≤ 0.06 | 0.12 (≈ 0.206 µM) | 1 (≈ 1.71 µM) | 0.25 (≈ 0.428 µM) | 0.25 (≈ 0.428 µM) | > 32 | 0.5 (≈ 0.857 µM) | 0.12 (≈ 0.206 µM) | 1 (≈ 1.71 µM) | 0.12 (≈ 0.206 µM) | 0.12 (≈ 0.206 µM)
7 | CC(C)NC(=N)c1ccc2[nH]c(-c3ccc(/C=C/c4ccc(-c5nc6cc(C(=N)NC(C)C)ccc6[nH]5)cc4)cc3)nc2c1 | 0.5 (≈ 0.861 µM) | 0.25 (≈ 0.43 µM) | 0.25 (≈ 0.43 µM) | 1 (≈ 1.72 µM) | 0.25 (≈ 0.43 µM) | 0.5 (≈ 0.861 µM) | 0.5 (≈ 0.861 µM) | 1 (≈ 1.72 µM) | 0.12 (≈ 0.207 µM) | 0.5 (≈ 0.861 µM) | 0.25 (≈ 0.43 µM) | 0.25 (≈ 0.43 µM)
8 | CC(C)NC(=N)c1ccc2[nH]c(-c3ccc(Sc4ccc(-c5nc6cc(C(=N)NC(C)C)ccc6[nH]5)cc4)cc3)nc2c1 | 16 (≈ 27.3 µM) | 16 (≈ 27.3 µM) | 16 (≈ 27.3 µM) | > 32 | 8 (≈ 13.6 µM) | > 32 | > 32 | 32 (≈ 54.5 µM) | 8 (≈ 13.6 µM) | > 32 | 16 (≈ 27.3 µM) | > 32
9 | CC(C)NC(=N)c1ccc2[nH]c(-c3ccc4c(c3)Cc3ccc(-c5nc6cc(C(=N)NC(C)C)ccc6[nH]5)cc3S4)nc2c1 | 2 (≈ 3.34 µM) | 0.5 (≈ 0.835 µM) | 0.5 (≈ 0.835 µM) | 16 (≈ 26.7 µM) | 1 (≈ 1.67 µM) | 16 (≈ 26.7 µM) | > 32 | 8 (≈ 13.4 µM) | 2 (≈ 3.34 µM) | 0.5 (≈ 0.835 µM) | 1 (≈ 1.67 µM) | 0.12 (≈ 0.2 µM)
10 | CC(C)NC(=N)c1ccc2[nH]c(-c3ccc(Cc4ccc(-c5nc6cc(C(=N)NC(C)C)ccc6[nH]5)cc4)cc3)nc2c1 | 0.25 (≈ 0.44 µM) | 0.12 (≈ 0.211 µM) | 0.25 (≈ 0.44 µM) | 1 (≈ 1.76 µM) | 0.25 (≈ 0.44 µM) | 0.25 (≈ 0.44 µM) | 1 (≈ 1.76 µM) | 1 (≈ 1.76 µM) | 0.12 (≈ 0.211 µM) | 1 (≈ 1.76 µM) | 0.25 (≈ 0.44 µM) | < 0.06
11 | CC(C)NC(=N)c1ccc2[nH]c(-c3ccc([C@@H]4C[C@H]4c4ccc(-c5nc6cc(C(=N)NC(C)C)ccc6[nH]5)cc4)cc3)nc2c1 | 0.25 (≈ 0.42 µM) | 0.12 (≈ 0.202 µM) | 0.12 (≈ 0.202 µM) | 1 (≈ 1.68 µM) | 0.12 (≈ 0.202 µM) | 0.5 (≈ 0.841 µM) | 0.5 (≈ 0.841 µM) | 0.5 (≈ 0.841 µM) | ≤ 0.06 | 0.25 (≈ 0.42 µM) | 0.12 (≈ 0.202 µM) | ≤ 0.06
12 | CC(C)NC(=N)c1ccc2[nH]c(-c3ccc(CCc4ccc(-c5nc6cc(C(=N)NC(C)C)ccc6[nH]5)cc4)cc3)nc2c1 | 0.25 (≈ 0.429 µM) | 0.12 (≈ 0.206 µM) | 0.12 (≈ 0.206 µM) | 0.25 (≈ 0.429 µM) | 0.12 (≈ 0.206 µM) | 0.25 (≈ 0.429 µM) | 0.5 (≈ 0.858 µM) | 0.5 (≈ 0.858 µM) | < 0.06 | 0.25 (≈ 0.429 µM) | 0.12 (≈ 0.206 µM) | < 0.06
13 | CC(C)NC(=N)c1ccc2[nH]c(-c3ccc(NS(=O)(=O)c4ccc(-c5nc6cc(C(=N)NC(C)C)ccc6[nH]5)cc4)cc3)nc2c1 | 16 (≈ 25.2 µM) | 4 (≈ 6.31 µM) | 4 (≈ 6.31 µM) | > 32 | 2 (≈ 3.16 µM) | 2 (≈ 3.16 µM) | 2 (≈ 3.16 µM) | 16 (≈ 25.2 µM) | 2 (≈ 3.16 µM) | 4 (≈ 6.31 µM) | 2 (≈ 3.16 µM) | 1 (≈ 1.58 µM)
14 | CC(C)NC(=N)c1ccc2[nH]c(-c3ccc(COc4ccc(-c5nc6cc(C(=N)NC(C)C)ccc6[nH]5)cc4)cc3)nc2c1 | 0.5 (≈ 0.855 µM) | 0.12 (≈ 0.205 µM) | 0.25 (≈ 0.428 µM) | 1 (≈ 1.71 µM) | 0.12 (≈ 0.205 µM) | 1 (≈ 1.71 µM) | 32 (≈ 54.7 µM) | 4 (≈ 6.84 µM) | ≤ 0.06 | 16 (≈ 27.4 µM) | 0.12 (≈ 0.205 µM) | ≤ 0.06
15 | O=C(O)c1cn(C2CC2)c2cc(N3CCNCC3)c(F)cc2c1=O [CIPROFLOXACIN] | ≤ 0.12 | > 32 | ≤ 0.12 | 0.5 (≈ 1.51 µM) | ≤ 0.12 | 0.5 (≈ 1.51 µM) | 0.5 (≈ 1.51 µM) | 8 (≈ 24.1 µM) | ≤ 0.12 | – | ≤ 0.12 | –
16 | CN[C@H](CC(C)C)C(=O)N[C@H]1C(=O)N[C@@H](CC(N)=O)C(=O)N[C@H]2C(=O)N[C@H]3C(=O)N[C@H](C(=O)N[C@H](C(=O)O)c4cc(O)cc(O)c4-c4cc3ccc4O)[C@H](O)c3ccc(c(Cl)c3)Oc3cc2cc(c3O[C@@H]2O[C@H](CO)[C@@H](O)[C@H](O)[C@H]2O[C@H]2C[C@](C)(N)[C@H](O)[C@H](C)O2)Oc2ccc(cc2Cl)[C@H]1O [VANCOMYCIN] | – | > 64 | – | – | – | > 32 | 4 (≈ 2.76 µM) | – | – | 0.12 (≈ 0.0828 µM) | 0.12 (≈ 0.0828 µM) | 1 (≈ 0.69 µM)
